Numbered stars: 1 amine (or outer) side, 2 acyl side, 3 side chain; on linkers, the order of the positions; unused ones are H or OH. Peptide text beside a SMILES is read from it. * marks the point of attachment. C20 diacid = O=C(O)CCCCCCCCCCCCCCCCCCC(=O)*; γGlu = O=C(O)[C@H](CCC(=O)[*:2])N[*:1]; AEEA = NCCOCCOCC(=O)O
Columns and labels:
[1] = Solubility in 100 mM glycylglycine buffer at pH 3.0 incubated for 18 hrs by UPLC analysis; type: physicochemical
[2] = target: T1, Calcitonin receptor (Homo sapiens, UniProt P30988); experiment: Agonist activity at human calcitonin receptor expressed in BHK570 cells assessed as increase in intracellular cAMP concentration incubated for 3 hrs in presence of 10% FBS by CRE luciferase reporter gene assay; type: functional, cell-based
T1 sequence (P30988 whole entry): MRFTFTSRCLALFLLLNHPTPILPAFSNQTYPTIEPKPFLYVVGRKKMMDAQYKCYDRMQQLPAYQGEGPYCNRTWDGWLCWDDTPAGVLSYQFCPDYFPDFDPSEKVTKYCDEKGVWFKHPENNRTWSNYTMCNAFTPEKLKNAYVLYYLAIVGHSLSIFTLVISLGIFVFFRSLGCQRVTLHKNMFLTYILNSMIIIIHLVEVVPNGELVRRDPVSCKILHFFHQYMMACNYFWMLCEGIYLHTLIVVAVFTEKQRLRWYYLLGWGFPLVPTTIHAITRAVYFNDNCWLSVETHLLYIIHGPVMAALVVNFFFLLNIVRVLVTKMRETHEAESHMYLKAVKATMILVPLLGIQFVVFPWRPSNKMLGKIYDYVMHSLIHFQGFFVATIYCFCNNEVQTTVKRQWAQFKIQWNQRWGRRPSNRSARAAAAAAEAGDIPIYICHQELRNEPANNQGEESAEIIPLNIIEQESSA

[3] = target: T1, Calcitonin receptor; experiment: Agonist activity at human calcitonin receptor expressed in BHK570 cells assessed as increase in intracellular cAMP concentration incubated for 3 hrs in absence of albumin by CRE luciferase reporter gene assay; type: functional, cell-based
[4] = target: T2, Amylin receptor AMY3; CALCR/RAMP3 (Homo sapiens, UniProt O60896+P30988); experiment: Agonist activity at human amylin receptor expressed in BHK570 cells co-expressing RAMP3 assessed as increase in intracellular cAMP concentration incubated for 3 hrs in absence of albumin by CRE luciferase reporter gene assay; type: functional, cell-based
T2 sequence (P30988 whole entry): T1 sequence (P30988 whole entry)
T2 sequence (O60896 whole entry): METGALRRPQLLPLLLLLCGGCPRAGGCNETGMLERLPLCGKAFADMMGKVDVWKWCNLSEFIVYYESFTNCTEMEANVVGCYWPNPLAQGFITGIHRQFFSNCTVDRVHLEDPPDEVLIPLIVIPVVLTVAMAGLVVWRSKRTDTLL

[5] = Stability in pH 7.5 buffer assessed as lag time for fibril formation at 1 uM by Thioflavin T based fluorescence assay; type: physicochemical; settings: pH 7.5, 1 µM
[6] = target: T2, Amylin receptor AMY3; CALCR/RAMP3; experiment: Agonist activity at human amylin receptor expressed in BHK570 cells co-expressing RAMP3 assessed as increase in intracellular cAMP concentration incubated for 3 hrs in presence of 10% FBS by CRE luciferase reporter gene assay; type: functional, cell-based
[7] = Stability in pH 7.5 buffer assessed as compound recovery at 1 uM by Thioflavin T based fluorescence assay; type: physicochemical; settings: read-out: Drug recovery
[8] = system: Rattus norvegicus; experiment: Reduction in food intake in Sprague-Dawley rat at 3 nmol/kg measured 24 to 48 hrs post dose relative to control; type: functional; parameters: scale not given: the % may be the effect or the level left
[9] = Solubility in 100 mM bistrispropane buffer at pH 7.0 incubated for 18 hrs by UPLC analysis; type: physicochemical
[10] = Solubility in 100 mM bistrispropane buffer at pH 8.0 incubated for 18 hrs by UPLC analysis; type: physicochemical
[11] = Solubility in 100 mM bistrispropane buffer at pH 7.5 incubated for 18 hrs by UPLC analysis; type: physicochemical
[12] = Solubility in 100 mM bistrispropane buffer at pH 6.5 incubated for 18 hrs by UPLC analysis; type: physicochemical
[13] = Solubility in 100 mM bistrispropane buffer at pH 6.0 incubated for 18 hrs by UPLC analysis; type: physicochemical
[14] = Solubility in 100 mM glycylglycine buffer at pH 4.0 incubated for 18 hrs by UPLC analysis; type: physicochemical
[15] = Solubility in 100 mM glycylglycine buffer at pH 5.0 incubated for 18 hrs by UPLC analysis; type: physicochemical
[16] = target: T2, Amylin receptor AMY3; CALCR/RAMP3; experiment: Displacement of [125I]-labeled rat amylin from human amylin receptor expressed in BHK tkts13 whole cells co-expressing RAMP3 incubated for 60 mins by scintillation proximity assay; type: cell-based

| solubility at 18 h [1] [µM] | EC50 [2] [nM] | EC50 [3] [nM] | EC50 [4] [nM] | Time [5] [h] | EC50 [6] [nM] | remaining at 1 µM [7] [%] | solubility at 18 h [9] [µM] | solubility at 18 h [10] [µM] | solubility at 18 h [11] [µM] | solubility at 18 h [12] [µM] | solubility at 18 h [13] [µM] | solubility at 18 h [14] [µM] | solubility at 18 h [15] [µM] | IC50 [16] [nM] | SMILES | Activity [8] [%] |
| --- | --- | --- | --- | --- | --- | --- | --- | --- | --- | --- | --- | --- | --- | --- | --- | --- |
| ≥ 200 | 0.054 | 0.065 | 0.057 | 0 | 0.105 | 23 |  |  |  |  |  |  |  |  | CC(C)C[C@H](NC(=O)CNC(=O)[C@H](CO)NC(=O)[C@H](C)NC(=O)CC[C@H](NC(=O)CCCCCCCCCCCCCCCCCCC(=O)O)C(=O)O)C(=O)N[C@@H](CO)C(=O)N[C@H](C(=O)N[C@@H](C)C(=O)N[C@H](C(=O)N[C@@H](CC(C)C)C(=O)NCC(=O)N[C@@H](CCCNC(=N)N)C(=O)N[C@@H](CC(C)C)C(=O)N[C@@H](CO)C(=O)N[C@@H](CCC(N)=O)C(=O)N[C@@H](CCC(=O)O)C(=O)N[C@@H](CC(C)C)C(=O)N[C@@H](Cc1cnc[nH]1)C(=O)N[C@@H](CCC(=O)O)C(=O)N[C@@H](CC(C)C)C(=O)N[C@@H](CCC(N)=O)C(=O)N[C@H](C(=O)N[C@@H](Cc1ccc(O)cc1)C(=O)N1CCC[C@H]1C(=O)N[C@@H](CCCNC(=N)N)C(=O)N[C@H](C(=O)N[C@@H](CCC(=O)O)C(=O)N[C@H](C(=O)NCC(=O)N[C@@H](CO)C(=O)NCC(=O)N[C@H](C(=O)N[C@@H](Cc1ccc(O)cc1)C(N)=O)[C@@H](C)O)[C@@H](C)O)[C@@H](C)O)[C@@H](C)O)C(C)C)[C@@H](C)O | 15 |
| ≥ 200 | 0.027 | 0.01 | 0.015 | > 45 | 0.066 | 100 | ≥ 200 | ≥ 200 | ≥ 200 | ≥ 200 | ≥ 200 | ≥ 200 | ≥ 200 |  | CC(C)C[C@H](NC(=O)[C@H](C)NC(=O)[C@H](C)NC(=O)[C@@H](NC(=O)[C@H](CO)NC(=O)[C@H](CC(C)C)NC(=O)[C@H](CCC(=O)O)NC(=O)[C@H](CO)NC(=O)[C@H](C)NC(=O)COCCOCCNC(=O)COCCOCCNC(=O)COCCOCCNC(=O)COCCOCCNC(=O)COCCOCCNC(=O)CC[C@H](NC(=O)CCCCCCCCCCCCCCCCCCC(=O)O)C(=O)O)[C@@H](C)O)C(=O)NCC(=O)N[C@@H](CCCNC(=N)N)C(=O)N[C@@H](CC(C)C)C(=O)N[C@@H](CO)C(=O)N[C@@H](C)C(=O)N[C@@H](CCC(=O)O)C(=O)N[C@@H](CC(C)C)C(=O)N[C@@H](Cc1cnc[nH]1)C(=O)N[C@@H](CCC(=O)O)C(=O)N[C@@H](CC(C)C)C(=O)N[C@@H](C)C(=O)N[C@H](C(=O)N[C@@H](CC(C)C)C(=O)N1CCC[C@H]1C(=O)N[C@@H](CCCNC(=N)N)C(=O)N[C@H](C(=O)N[C@@H](CCC(=O)O)C(=O)N[C@H](C(=O)NCC(=O)N[C@@H](CO)C(=O)NCC(=O)N[C@@H](CO)C(=O)N1CCC[C@H]1C(N)=O)[C@@H](C)O)[C@@H](C)O)[C@@H](C)O ({C20 diacid-γGlu-AEEA-AEEA-AEEA-AEEA-AEEA}-ASELSTAALGRLSAELHELATLPRTETGSGSP-NH2) |  |
| ≥ 200 | 0.073 | 0.037 | 0.051 | 0 | 0.093 | 100 | ≥ 200 | ≥ 200 | ≥ 200 | ≥ 200 | ≥ 200 | ≥ 200 | ≥ 200 | 0.588 | CC(C)C[C@H](NC(=O)[C@H](C)NC(=O)[C@H](C)NC(=O)[C@@H](NC(=O)[C@H](CO)NC(=O)[C@H](CC(C)C)NC(=O)[C@H](CCC(=O)O)NC(=O)[C@H](CO)NC(=O)[C@H](C)NC(=O)CC[C@H](NC(=O)CCCCCCCCCCCCCCCCCCC(=O)O)C(=O)O)[C@@H](C)O)C(=O)NCC(=O)N[C@@H](CCCCN)C(=O)N[C@@H](CC(C)C)C(=O)N[C@@H](CO)C(=O)N[C@@H](C)C(=O)N[C@@H](CCC(=O)O)C(=O)N[C@@H](CC(C)C)C(=O)N[C@@H](Cc1cnc[nH]1)C(=O)N[C@@H](CCC(=O)O)C(=O)N[C@@H](CC(C)C)C(=O)N[C@@H](C)C(=O)N[C@H](C(=O)N[C@@H](Cc1ccc(O)cc1)C(=O)N1CCC[C@H]1C(=O)N[C@@H](CCCCN)C(=O)N[C@H](C(=O)N[C@@H](CCC(=O)O)C(=O)N[C@H](C(=O)NCC(=O)N[C@@H](CO)C(=O)NCC(=O)N[C@@H](CO)C(=O)N[C@@H](Cc1ccc(O)cc1)C(N)=O)[C@@H](C)O)[C@@H](C)O)[C@@H](C)O ({C20 diacid-γGlu}-ASELSTAALGKLSAELHELATYPKTETGSGSY-NH2) |  |
| ≥ 200 | 0.073 | 0.04 | 0.05 | > 45 | 0.094 | 100 | ≥ 200 | ≥ 200 | ≥ 200 | ≥ 200 | ≥ 200 | ≥ 200 |  | 1.36 | CC(C)C[C@H](NC(=O)[C@H](C)NC(=O)[C@H](C)NC(=O)[C@@H](NC(=O)[C@H](CO)NC(=O)[C@H](CC(C)C)NC(=O)[C@H](CCC(=O)O)NC(=O)[C@H](CO)NC(=O)[C@H](C)NC(=O)CC[C@H](NC(=O)CCCCCCCCCCCCCCCCCCC(=O)O)C(=O)O)[C@@H](C)O)C(=O)NCC(=O)N[C@@H](CCCNC(=N)N)C(=O)N[C@@H](CC(C)C)C(=O)N[C@@H](CO)C(=O)N[C@@H](C)C(=O)N[C@@H](CCC(=O)O)C(=O)N[C@@H](CC(C)C)C(=O)N[C@@H](Cc1cnc[nH]1)C(=O)N[C@@H](CCC(=O)O)C(=O)N[C@@H](CC(C)C)C(=O)N[C@@H](C)C(=O)N[C@H](C(=O)N[C@@H](CC(C)C)C(=O)N1CCC[C@H]1C(=O)N[C@@H](CCCNC(=N)N)C(=O)N[C@H](C(=O)N[C@@H](CCC(=O)O)C(=O)N[C@H](C(=O)NCC(=O)N[C@@H](CO)C(=O)NCC(=O)N[C@@H](CO)C(=O)N[C@@H](Cc1ccccc1)C(N)=O)[C@@H](C)O)[C@@H](C)O)[C@@H](C)O ({C20 diacid-γGlu}-ASELSTAALGRLSAELHELATLPRTETGSGSF-NH2) |  |
| ≥ 200 | 0.239 | 0.066 | 0.142 | > 45 | 0.435 | 100 | ≥ 200 | ≥ 200 | ≥ 200 | ≥ 200 | ≥ 200 | ≥ 200 | ≥ 200 | 4.36 | CC(C)C[C@H](NC(=O)[C@H](C)NC(=O)[C@H](C)NC(=O)[C@@H](NC(=O)[C@H](CO)NC(=O)[C@H](CC(C)C)NC(=O)[C@H](CCC(=O)O)NC(=O)[C@H](CO)NC(=O)[C@H](C)NC(=O)CC[C@H](NC(=O)CCCCCCCCCCCCCCCCCCC(=O)O)C(=O)O)[C@@H](C)O)C(=O)NCC(=O)N[C@@H](CCCNC(=N)N)C(=O)N[C@@H](CC(C)C)C(=O)N[C@@H](CO)C(=O)N[C@@H](C)C(=O)N[C@@H](CCC(=O)O)C(=O)N[C@@H](CC(C)C)C(=O)N[C@@H](Cc1cnc[nH]1)C(=O)N[C@@H](CCC(=O)O)C(=O)N[C@@H](CC(C)C)C(=O)N[C@@H](C)C(=O)N[C@H](C(=O)N[C@@H](CC(C)C)C(=O)N1CCC[C@H]1C(=O)N[C@@H](CCCNC(=N)N)C(=O)N[C@H](C(=O)N[C@@H](CCC(=O)O)C(=O)N[C@H](C(=O)NCC(=O)N[C@@H](CO)C(=O)NCC(=O)N[C@@H](CO)C(=O)NCC(N)=O)[C@@H](C)O)[C@@H](C)O)[C@@H](C)O ({C20 diacid-γGlu}-ASELSTAALGRLSAELHELATLPRTETGSGSG-NH2) |  |

— ChEMBL document CHEMBL4420076, “Amylin and calcitonin receptor agonist” (2017)
